Data on two compounds can be found in US12569474B2, “Compositions and methods for treating anemia” (Akebia Therapeutics, Inc., priority 2013, dated 2026).

The test system of data set [1] is healthy male adults. Nature of the data set: Phase 1a single ascending dose (SAD) study, EPO response. Format: in vivo, human.
Data set [2] concerns healthy male adults. Nature of the data set: Phase 1b multiple ascending dose (MAD) study, EPO response. The data set is classed as in vivo, human.
Another data set concerns healthy adult males. Put plainly: Phase I clinical trials in healthy adult males (overall). The data set is classed as in vivo, human. The source says:
This was a surprising result for a number of reasons. […] Thus, particularly with regard to patients having a disease or condition associated with kidney impairment, a person of skill in the art would not expect that administration of a compound provided herein could cause an increase in a patient's serum hemoglobin levels while also mimicking the diurnal variation of serum EPO levels in healthy individuals and without raising the patients' baseline serum EPO levels.

The test system of data set [3] is patients having anemia secondary to CKD. Nature of the data set: Compound 1 at 500 mg in patients having anemia secondary to CKD: EPO levels and half-life over 24 hours. Format: in vivo, human. The source says:
Current treatment of anemia associated with chronic kidney disease (CKD) with erythropoiesis-stimulating agents (ESAs) can lead to supraphysiological levels of circulating erythropoietin (EPO) that persist for days, a profile that may be associated with increased cardiovascular side effects and thromboembolic events. […] In a randomized double-blind, placebo-controlled Phase 2a trial, 93 patients with CKD stage 3, 4, or 5 (not on dialysis) received placebo or Compound 1 in the following dose groups: 240, 370, 500, or 630 mg once daily for 6 weeks. […]

Data set [4] deals with patients with CKD stage 3, 4, or 5 (not on dialysis). Put plainly: Randomized double-blind, placebo-controlled Phase 2a trial, 6 weeks. Format: in vivo, human. The source says:
Current treatment of anemia associated with chronic kidney disease (CKD) with erythropoiesis-stimulating agents (ESAs) can lead to supraphysiological levels of circulating erythropoietin (EPO) that persist for days, a profile that may be associated with increased cardiovascular side effects and thromboembolic events. […] In a randomized double-blind, placebo-controlled Phase 2a trial, 93 patients with CKD stage 3, 4, or 5 (not on dialysis) received placebo or Compound 1 in the following dose groups: 240, 370, 500, or 630 mg once daily for 6 weeks. […] Erythropoietin was measured at baseline, week 2, end of treatment and follow up.
In a randomized double-blind, placebo-controlled Phase 2a clinical trial, 93 patients with CKD stage 3, 4, or 5 (not on dialysis) received placebo or Compound 1 in the following dose groups: 240, 370, 500, or 630 mg once daily for 6 weeks. […] TIBC and serum iron levels were measured at baseline, week 2, week 4, end of treatment (week 6) and follow up.
In a randomized double-blind, placebo-controlled Phase 2a trial, 93 patients with CKD stage 3, 4, or 5 (not on dialysis) received placebo or Compound 1 in the following dose groups: 240, 370, 500, or 630 mg once daily for 6 weeks.

For data set [5], the system named is patients with Stage 3 or 4 CKD. Nature of the data set: Phase 2a dose escalation study, 28 days. The data set is classed as in vivo, human. As to the method:
In a Phase 2a dose escalation study, 10 CKD patients received Compound 1 once daily for 28 days. Dosing began at 400 mg in CKD Stage 3 patients and 300 mg in CKD Stage 4 patients.

The nature of data set [6]: Clinical data obtained to date (summary over studies). Format: in vivo, human. From the text: Furthermore, this is achieved with a modest increase in the daily peak level of EPO, but with no increase in basal (pre-dose) levels (in a manner that mimics the physiologic diurnal response in healthy individuals).
The test system of data set [7] is EPO production in Hep3B cells. Put plainly: In Vitro EPO Induction Assay (secreted EPO immunoassay). Format: cell-based, human. On the procedure:
(§1) Materials and Methods: Cell Culture: Human hepatocellular carcinoma (Hep3B) cells were obtained from the American Type Culture Collection (ATCC, Mannassas, VA) and cultured according to ATCC recommendations. Cells were cultured at 37° C. in an atmosphere of 95% air and 5% C02 in a humidified incubator. Compound 13 was diluted to a stock concentration of 50 mM in DMSO (Sigma).
(§2) Cell Treatments: Hep3B cells were plated on 24 well plates. Subsets of Hep3B cultures were transfected with a HIF reporter plasmid (pHRE-luciferase) overnight. (See Sheta, et al., Oncogene. 2001 Nov. 15; 20(52):7624-34.) Cells were exposed to vehicle (1:1000 DMSO) or test Compound 13 at 50 m for 18 hours at 37° C. in an atmosphere of 95% air and 5% CO2 in a humidified incubator.
(§3) Analysis: After 48-hour culture, cell supernatants were subsequently collected, centrifuged at 15,000×g for 15 minutes at 4° C. to sediment debris.
In Vitro EPO Induction Assay: Secreted EPO levels were assayed by specific immunoassay (MesoScale Discovery, Gaithersburg, MD) in accordance with manufacturer's instructions.
(§4) Compound 13 was assayed in duplicate. Fold change over the vehicle control was calculated. Compound 13 was tested at a concentration of 50 m. […] Resulting values for the In Vitro EPO Induction Assay, and In Vitro HIF Prolyl Hydroxylase Inhibition Assay are shown in Table 1 and Table 2.

For a further data set, the system named is HIF prolyl hydroxylase. Put plainly: In Vitro HIF Prolyl Hydroxylase Inhibition Assay (HRE luciferase reporter). Format: cell-based, human. As to the method: as §1, §2, §3
In Vitro HIF Prolyl Hydroxylase Inhibition Assay: Cell lysates were assayed using the dual luciferase reporter-assay (Promega, Madison, WI, USA). Observed firefly luciferase activity was normalized to a co-transfected Renilla luciferase.
as §4
(In general: In a reporter assay the amount or activity of a reporter protein is the signal.)

The mark [8] stands for this setting: 240, 370, 500, or 630 mg once daily for 6 weeks, all dose groups, ANOVA p<0.0001.

Each structure is given as a SMILES string. Entries after “also recorded” stand apart in the source; their conditions may differ.

For the compound `O=C(O)CNC(=O)c1ncc(-c2cccc(Cl)c2)cc1O` [Compound 1, {[5-(3-chlorophenyl)-3-hydroxypyridine-2-carbonyl]amino}acetic acid], the “EPO increase compared to placebo” value in the data set on healthy male adults [1] (600 mg cohort, 8 hours, p=0.034) is recorded as “significant increase”. Also, in the data set with healthy male adults [1] (900 and 1200 mg groups, 8, 12, 18, and 24 hours following dosing, p<0.01), the “EPO rise compared to placebo” value is on record as “significant, dose-dependent rises”. In addition, in the data set with healthy male adults [2] (multiple ascending dose), the “Peak EPO concentration” value is on record as “dose responsive increase”. Further, the “EPO concentration prior to the next morning dose” value in the data set on healthy male adults [2] (regardless of the dosing group) is “essentially returned to baseline”. For the same compound, the “Rise in EPO relative to dose” value in the data set on healthy adult males (Phase 1 studies) is given as “proportionate to the dose”. In the data set with healthy adult males (healthy adult males), the “Serum EPO levels after administration” value is reported as “returned to approximately baseline levels within twenty-four hours” and the Serum hemoglobin levels entry was “able to increase serum hemoglobin levels”. Besides, the “Half-life in patients with anemia secondary to CKD compared to healthy individuals” value in data set [3] (CKD patients vs healthy adult males) is on record as “approximately twice as long; also recorded: significantly longer”. The “Time to return to baseline EPO levels” value in data set [3] (dose of 500 mg, patients having anemia secondary to CKD) is at most 24 h. In [4] (setting [8]), the “HGB (hemoglobin) at Week 6 compared to baseline and to placebo” value was “able to increase serum hemoglobin levels; also recorded: significantly increased HGB; also recorded: significantly increased hemoglobin levels”; the “TIBC at Week 6 compared to baseline and to placebo” value was “able to increase TIBC levels; also recorded: significantly increased TIBC”. Further, the “TIBC dose relation at Week 6” value in data set [4] (240-630 mg once daily) is given as “dose-related increase in TIBC; also recorded: dose-related increase in total iron binding capacity”. Besides, in data set [4] (Week 6), the “Serum iron levels relative to baseline” value is recorded as “not associated with an increase in serum iron levels; also recorded: without increasing serum iron levels” and the “TSAT at Week 6” value is “decrease in TSAT”. Besides, the “Hepcidin expression at low doses” value in data set [4] (low doses, such as the 240 mg group, Week 6) was “not accompanied by a decrease in hepcidin expression”. Further, the “Serum levels of EPO over time” value in [4] (measured at baseline, week 2, end of treatment and follow up) is “did not increase significantly over time”. In [4] (mimicking the physiologic diurnal response), the “Daily EPO levels in CKD patients” value is “moderate daily increases in EPO levels”. Also, the “Basal (pre-dose) EPO levels” value in [4] (prior to daily dose, 6 weeks) is “without increasing basal (pre-dose) EPO levels”. In addition, the HGB dose response result in data set [4] (starting from the lowest dose (240 mg)) is listed as “clear dose-responsive increase in HGB”. Moreover, the “Hemoglobin by Day 29” value in [5] (10 CKD Stage 3 and 4 patients, once daily 28 days, start 400 mg (Stage 3) or 300 mg (Stage 4), +100 mg steps, baseline 9.91 g/dL) worked out at 10.54 g/dL. Besides, the “Ferritin by Day 29” value in data set [5] (10 CKD Stage 3 and 4 patients, once daily 28 days, baseline 334.10 ng/mL) stood at 271.70 ng/mL. For the same compound, the Tolerability result in [5] (patients with Stage 3 or 4 CKD, 28 days) is recorded as “well-tolerated”. In data set [6] (dose responsive changes), the Hepcidin and ferritin entry was “decreases in hepcidin and ferritin”; the “Total iron binding capacity” value is “increase in total iron binding capacity”. Also, in data set [6] (human, in vivo), the “Baseline EPO” value is listed as “without increasing baseline EPO”. The “EPO levels (daily)” value in data set [6] (similar to the physiologic diurnal response) is reported as “modest dose-proportional daily increases in EPO levels”.
As to `NCCNC(=O)c1ncccc1O` [Compound 13, N-(2-aminoethyl)-3-hydroxy-pyridine-2-carboxamide], in data set [7] (Compound 13, 18 hours, assayed in duplicate, vehicle 3.0736), the “Mean [EPO]” value came out at 8.9137 mIU/mL. In addition, the “Fold Change (EPO, over vehicle control)” value in [7] (Compound 13, inactive if ≤1.0 fold over control) was 2.9001. The “EPO production (result in words)” value in data set [7] (vs DMSO vehicle) was “increase EPO production”. For the same compound, the “Mean HIF PH Inhibition Activity (Relative Luciferase)” value in the data set on HIF prolyl hydroxylase (Hep3B cells transfected with pHRE-luciferase, Compound 13 at 50 µM, firefly normalized to Renilla, vehicle 1) worked out at 3.6. In addition, the “HIF prolyl hydroxylase enzyme activity (result in words)” value in the data set on HIF prolyl hydroxylase (Hep3B cells, 50 µM, vs DMSO vehicle) is “inhibit HIF prolyl hydroxylase enzyme activity”. Moreover, in the data set on HIF prolyl hydroxylase (Hep3B cells, Compound 13 at 50 µM, inactive if ≤1.0 fold over control), the “Fold Change (HIF PH inhibition activity, over vehicle control)” value is 3.6.
